Assay results reported in US20260242340A1, “COMPOUNDS AND METHODS FOR TREATING PROTEIN AGGREGATION DISEASES” (ACELOT, INC., priority 2023, published 2026).

How the values were obtained:
[1] = target: peptide fragment of TAR DNA-binding protein 43 (TDP-43) (Homo sapiens, UniProt Q13148); assay: Ion-mobility mass spectrometry (IM-MS) of TDP-43 peptide oligomerization; assay type: biochemical; details: approximately 4 hours after addition of compound to aggregated peptide sample; for 6mer/hexamer peak of TDP-43 peptide (IM-MS, FIG. 2): versus control
Description: One of the assays used to determine the effectiveness of the compounds is Ion Mobility Mass Spectroscopy, or IM-MS. In this assay, a protein solution was fed into the IM-MS tube. At the entrance to the tube, an electric field ionized the proteins, propelling them into the body of the tube, where a constant electric field propelled them forward. Upon reaching the end of the tube, the ionized proteins were counted by a particle detector, which can also measure the mass/charge ratio and flight time of each particle.
Methods: IM-MS was utilized to monitor the oligomerization of a peptide fragment of TAR DNA-binding protein 43 (TDP-43) in the presence of compounds 1 and 2 using methods as described in Laos et al ACS Chem. Neuro. 2019, 10 (9), 4112-4123; and Biochemistry 2019, 59 (4), 499-508. The accumulation of TDP-43 aggregates in the central nervous system is a common feature of many neurodegenerative diseases, such as amyotrophic lateral sclerosis, frontotemporal dementia, Alzheimer's disease, and limbic predominant age-related TDP-43 encephalopathy. The ability of IM-MS to separate TDP-43 aggregate species of a specific [m]z+ (m=mass, z=charge) that contains different [n]z+ (n=number of TDP-43 peptide molecules aggregated together) by measuring the arrival time distributions (ATDs) yields oligomeric distribution spectrographs.
In FIG. 2, the number denoted at the top of each peak is the peptide aggregate size (e.g., 6=6 peptides aggregated together). The spectrograph designated as Control is the peptide form of TDP-43 without any protein aggregation disrupting compound added. Measurements were taken approximately 4 hours after addition of compound to aggregated peptide sample. […] The 6mer is the toxic oligomer that propagates disease and neuronal degeneration. FIG. 2 also discloses that the addition of compound 1 or compound 2 decreased the number of higher-order TDP-43 oligomers and increased the number of TDP-43 monomers and dimers.
We conducted two types of experiments. The first was a co-incubation experiment, where we added the compounds to a fresh solution of monomeric protein, and allowed the protein to aggregate (or, ideally, not aggregate) in the presence of the compound. The second experiment was a recovery experiment, where we added our compounds to a solution of pre-aggregated protein. Co-incubation experiments allowed us to determine if the compounds can prevent initial aggregation, while recovery experiments allowed us to determine if the compounds can break up existing aggregates.

[2] = target: T1, TDP-43 cytosolic aggregates (TDP-43-tGFP-U2OS cell line) (Homo sapiens, UniProt Q13148); assay: TDP-43 cytoplasmic aggregation assay; assay type: cell-based; details: 10 μM compound; TDP-43-tGFP-U2OS cells, sodium arsenite; lower = more potent
T1 construct: expressed in transfected cells; host or cells: U2OS (recombinant, IPTG-inducible TDP-43 expression)
Protocol: Recombinant TDP-43-tGFP-U2OS cell line was thawed (2×10^6 cells per T75) and was maintained in DMEM-F12 supplemented with 10% FBS at 37° C. in a humidified 5% CO2 atmosphere. Cells were plated in 96-well plates with a density of 10,000 cells (+/−2000 cells) per well. Cells were incubated with the test compounds and isopropyl β-D-1-thiogalactopyranoside (IPTG) 1 mM to induce TDP43 expression for 24 hours. The assays were carried out in triplicate. Cells were treated with 125-250 μM of sodium arsenite for 120 min and TDP-43 punctae formation was quantified in both cell cytoplasm and cell nucleus, in living cells. The nuclei were stained using Hoechst (0.5 μg/ml) and the fluorescence was measured using a Cell Insight High-Content Bioimager from Thermo Fisher. To detect the Hoechst, the filters used were 380/10 and 460/10 nm for excitation and emission, respectively, and to detect the TDP-43 punctae, the filters were 488/20 and 520/20 nm, respectively. The images were obtained with an objective of 20×. Cell quantification was performed delimitating the region of interest of the nuclei and after quantification the average of each triplicate was performed. For granule quantification the spot detector application from Cell Software delimitated 2 regions of interest, the nuclei and cytosol. This software quantified the average number of granules per nuclei and the average number of granules per cytosol in each well.

Aβ 1-42 = target: T2, Aβ 1-42 (Homo sapiens, UniProt P05067); assay: Aβ42 thioflavin T assay; assay type: biochemical; details: 50 μM compound, 5 μM Aβ 1-42, ThT RFU at 15 hours; 100% = Aβ + DMSO; read-out: Aβ42 % aggregation at 50 μM
T2 construct: The monomeric form of Aβ 1-42 (rPeptide, A1170-025) film; purchased rPeptide A1170-025
Protocol: The effect of compounds on fibril formation by Aβ 1-42 was screened using a thioflavin T (ThT) fluorescence assay in a 96-well plate format. The monomeric form of Aβ 1-42 (rPeptide, A1170-025) film was diluted with 10 mM NaOH to form a 1 mg/ml stock solution. This stock solution was then further diluted with cell culture grade water (Cytiva, SH30529.01) and 10×PBS (VWR, 97063-660) to a working concentration of 100 μM in 1×PBS on ice. Compounds were initially dissolved in 100% DMSO (MilliporeSigma, D2650) at room temperature to make a 10 mM stock and stored at −20° C. prior to the experiment. On the day of the experiment, the stock solution was diluted with 1×PBS to a concentration of 500 μM, containing 5% DMSO. The reaction mixture, containing 10 μM ThT […], 5 μM Aβ 1-42, and 1×PBS was prepared in 15 ml Falcon centrifuge tubes (Corning, 352070) and kept on ice during preparation. The reaction mixture was then dispensed into multiple wells of a 96-well half-area, low-binding polyethylene non-treated plate (Corning, 3880) with a clear bottom, at 90 μL per well. To each well, 10 μL of 500 μM compound stock was added, with three replicates per compound. To account for the presence of DMSO, 5% DMSO in 1×PBS was used as the vehicle control. The positive control consisted of 10 μM ThT, 5 μM Aβ 1-42, and 0.5% DMSO in 1×PBS, while the negative control consisted of 10 μM ThT and 0.5% DMSO in 1×PBS. The plates were sealed with polyester sealing tape (VWR, 89134-430) to prevent evaporation and then placed in a plate reader (Molecular Devices SpectraMax ID5) at 37° C. without agitation. ThT fluorescence was measured through the bottom of the plate using 440- and 480-nm excitation and emission filters for 15 hours at 0.5-hour intervals. Each well was scanned at 5 points with a 1.25 mm distance between points. The relative fluorescence unit (RFU) at 15 hours was used to rank the percent of aggregation for all tested compounds and controls.

T1 sequence (Q13148 whole entry): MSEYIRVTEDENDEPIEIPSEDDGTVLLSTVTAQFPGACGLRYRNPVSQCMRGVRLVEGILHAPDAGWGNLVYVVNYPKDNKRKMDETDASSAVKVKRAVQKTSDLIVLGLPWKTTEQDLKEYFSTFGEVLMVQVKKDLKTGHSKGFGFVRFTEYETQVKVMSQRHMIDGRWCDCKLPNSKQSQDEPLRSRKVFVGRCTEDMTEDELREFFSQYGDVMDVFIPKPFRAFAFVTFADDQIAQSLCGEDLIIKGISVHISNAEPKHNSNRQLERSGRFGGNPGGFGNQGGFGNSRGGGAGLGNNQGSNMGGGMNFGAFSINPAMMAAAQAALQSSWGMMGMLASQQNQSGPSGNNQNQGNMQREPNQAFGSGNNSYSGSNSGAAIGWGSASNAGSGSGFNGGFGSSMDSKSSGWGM
T2 sequence (P05067 672-713 limits assumed): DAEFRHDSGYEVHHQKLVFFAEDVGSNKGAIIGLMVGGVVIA

Row | number of TDP-43 monomers and dimers (IM-MS, FIG. 2) [1] | number of higher-order TDP-43 oligomers (IM-MS, FIG. 2) [1] | 6mer/hexamer peak of TDP-43 peptide (IM-MS, FIG. 2) [1] | TDP-43 % cytosolic aggregates at 10 μM [2] [%] | activity at 50 µM (Aβ 1-42) [%] | SMILES
1 | increased | decreased | depleted | 10.2 | 73.5 | CC(=O)Nc1ccc2c(c1)CCN(CCc1ccc(F)c(Cl)c1)C2 [Compound 2]
2 | increased | decreased | depleted | 34.5 | 60.9 | CC(=O)Nc1ccc2c(c1)CCN(CCc1cccc(Cl)c1)C2 [Compound 1]
